The results in this text go back to patent US20230079045A1 (priority 2019, published 2023).

The subject of this assay is IFV A/PR/8/34. Put plainly: cytopathic effect (CPE) antiviral test in MDCK cells, IFV A/PR/8/34. It is filed as cell-based, influenza virus. Particulars: read-out: EC50(IFV A/PR/8/34). Background: Protection from cytopathic effect is a common read-out in antiviral testing.
Setting [1] is: unidentified influenza virus, PR/8, MDCK, 120 h.

Read-outs that look alike come from different tables or passages of the source.

With `CC(C)n1cc(-c2ccc3oc(-c4ccnc(C(=O)N5CCN(C(c6ccccc6)c6nnn(C(F)F)n6)CC5)c4)nc3c2)cn1` (racemic) [Compound 146, (R/S)-(4-((2-(difluoromethyl)-2H-tetrazol-5-yl)(phenyl)methyl)piperazin-1-yl)(4-(5-(1-isopropyl-1H-pyrazol-4-yl)benzo[d]oxazol-2-yl)pyridin-2-yl)methanone], under setting [1], the EC50 was 26 nM. Take `Cn1cnc(-c2ccc3oc(-c4ccnc(C(=O)N5CCN(C(c6ccccc6)c6nnn(C(F)F)n6)CC5)c4)nc3c2)c1` (racemic) [Compound 147, (R/S)-(4-((2-(difluoromethyl)-2H-tetrazol-5-yl)(phenyl)methyl)piperazin-1-yl)(4-(5-(1-methyl-1H-imidazol-4-yl)benzo[d]oxazol-2-yl)pyridin-2-yl)methanone]: the EC50 under setting [1] is 14 nM. Still for that read-out and setting: with `O=C(c1cc(-c2nc3cc(-c4cnn(C5CC5)c4)ccc3o2)ccn1)N1CCN(C(c2ccccc2)c2nnn(C(F)F)n2)CC1` (racemic) [Compound 148, (R/S)-(4-(5-(1-cyclopropyl-1H-pyrazol-4-yl)benzo[d]oxazol-2-yl)pyridin-2-yl)(4-((2-(difluoromethyl)-2H-tetrazol-5-yl)(phenyl)methyl)piperazin-1-yl)methanone] the figure was 33 nM; with `O=C(Nc1ccc2oc(-c3ccnc(C(=O)N4CCN(C(c5ccccc5)c5nnn(CF)n5)CC4)c3)nc2c1)[C@@H]1C[C@@H]1F` (mixture of isomers) [Compound 150, (1S,2S)-2-fluoro-N-(2-(2-(4-((S/R)-(2-(fluoromethyl)-2H-tetrazol-5-yl)(phenyl)methyl)piperazine-1-carbonyl)pyridin-4-yl)benzo[d]oxazol-5-yl)cyclopropane-1-carboxamide], 8 nM. The same measure, in the same setting: with `O=C(c1cc(-c2nc3cc(-c4cnn(C5COC5)c4)ccc3o2)ccn1)N1CCN(C(c2ccccc2)c2nnn(C(F)F)n2)CC1` (racemic) [Compound 151, (R/S)-(4-((2-(difluoromethyl)-2H-tetrazol-5-yl)(phenyl)methyl)piperazin-1-yl)(4-(5-(1-(oxetan-3-yl)-1H-pyrazol-4-yl)benzo[d]oxazol-2-yl)pyridin-2-yl)methanone] the figure was 38 nM. The same measure, in the same setting: with `Cn1nccc1-c1ccc2oc(-c3ccnc(C(=O)N4CCN(C(c5ccccc5)c5nnn(C(F)F)n5)CC4)c3)nc2c1` (racemic) [Compound 152, (R/S)-(4-((2-(difluoromethyl)-2H-tetrazol-5-yl)(phenyl)methyl)piperazin-1-yl)(4-(5-(1-methyl-1H-pyrazol-5-yl)benzo[d]oxazol-2-yl)pyridin-2-yl)methanone] the figure was 5 nM. On to `Cn1ccc(-c2ccc3oc(-c4ccnc(C(=O)N5CCN(C(c6ccccc6)c6nnn(C(F)F)n6)CC5)c4)nc3c2)n1` (racemic) [Compound 153, (R/S)-(4-((2-(difluoromethyl)-2H-tetrazol-5-yl)(phenyl)methyl)piperazin-1-yl)(4-(5-(1-methyl-1H-pyrazol-3-yl)benzo[d]oxazol-2-yl)pyridin-2-yl)methanone], for which, under setting [1], the EC50 is 7 nM. Take `Cc1c(-c2ccc3oc(-c4ccnc(C(=O)N5CCN(C(c6ccccc6)c6nnn(C(F)F)n6)CC5)c4)nc3c2)cnn1C` (racemic) [Compound 154, (R/S)-(4-((2-(difluoromethyl)-2H-tetrazol-5-yl)(phenyl)methyl)piperazin-1-yl)(4-(5-(1,5-dimethyl-1H-pyrazol-4-yl)benzo[d]oxazol-2-yl)pyridin-2-yl)methanone]: under setting [1], the EC50 is 5 nM.

Consider `Cc1n[nH]cc1-c1ccc2oc(-c3ccnc(C(=O)N4CCN(C(c5ccccc5)c5nnn(C(F)F)n5)CC4)c3)nc2c1` (racemic) [Compound 155, (R/S)-(4-((2-(difluoromethyl)-2H-tetrazol-5-yl)(phenyl)methyl)piperazin-1-yl)(4-(5-(3-methyl-1H-pyrazol-4-yl)benzo[d]oxazol-2-yl)pyridin-2-yl)methanone], for which, under setting [1], the EC50 was determined as 1 nM.

For the molecule `Cc1n[nH]c(C)c1-c1ccc2oc(-c3ccnc(C(=O)N4CCN(C(c5ccccc5)c5nnn(C(F)F)n5)CC4)c3)nc2c1` (racemic) [Compound 156, (R/S)-(4-((2-(difluoromethyl)-2H-tetrazol-5-yl)(phenyl)methyl)piperazin-1-yl)(4-(5-(3,5-dimethyl-1H-pyrazol-4-yl)benzo[d]oxazol-2-yl)pyridin-2-yl)methanone], the EC50 under setting [1] came out at 7 nM. `Cc1cn(-c2ccc3oc(-c4ccnc(C(=O)N5CCN(C(c6ccccc6)c6nnn(C(F)F)n6)CC5)c4)nc3c2)cn1` (racemic) [Compound 158, (R/S)-(4-((2-(difluoromethyl)-2H-tetrazol-5-yl)(phenyl)methyl)piperazin-1-yl)(4-(5-(4-methyl-1H-imidazol-1-yl)benzo[d]oxazol-2-yl)pyridin-2-yl)methanone]: under setting [1], the EC50 stood at 3 nM.

Turning to `Cn1cncc1-c1ccc2nc(-c3ccnc(C(=O)N4CCN(C(c5ccccc5)c5nnn(C(F)F)n5)CC4)c3)oc2c1` (racemic) [Compound 160, (R/S)-(4-((2-(difluoromethyl)-2H-tetrazol-5-yl)(phenyl)-13-methyl)piperazin-1-yl)(4-(6-(1-methyl-1H-imidazol-5-yl)benzo[d]oxazol-2-yl)pyridin-2-yl)methanone], the EC50 (MDCK cells, CPE method, CCK-8 cell viability, 5 days) came to 18 nM. Turning to `O=C(c1cc(-c2nc3cc(-c4cnn(C(F)(F)F)c4)ccc3o2)ccn1)N1CCN(C(c2ccccc2)c2nnn(C(F)F)n2)CC1` (racemic) [Compound 161, (R/S)-(4-((2-(difluoromethyl)-2H-tetrazol-5-yl)(phenyl)methyl)piperazin-1-yl)(4-(5-(1-(trifluoromethyl)-1H-pyrazol-4-yl)benzo[d]oxazol-2-yl)pyridin-2-yl)methanone], the EC50 under setting [1] was found to be 20 nM. Same read-out and setting: the figure for `Cc1ncc(-c2ccc3oc(-c4ccnc(C(=O)N5CCN(C(c6ccccc6)c6nnn(C(F)F)n6)CC5)c4)nc3c2)n1C` (racemic) [Compound 162, (R/S)-(4-((2-(difluoromethyl)-2H-tetrazol-5-yl)(phenyl)methyl)piperazin-1-yl)(4-(5-(1,2-dimethyl-1H-imidazol-5-yl)benzo[d]oxazol-2-yl)pyridin-2-yl)methanone] is 3 nM; for `[2H]C([2H])([2H])C(C(=O)Nc1ccc2oc(-c3ccnc(C(=O)N4CCC(C(c5ccccc5)n5nnc(C(F)F)n5)CC4)c3)nc2c1)C([2H])([2H])[2H]` (racemic) [Compound 163, 3,3,3-tideuterio-N-[2-[2-[4-[(R/S)-[5-(difluoromethyl)tetrazol-2-yl]-phenyl-methyl]piperidine-1-carbonyl]-4-pyridyl]-1,3-benzoxazol-5-yl]-2-(trideuteriomethyl)propanamide] it is 8 nM; for `CC(C)(F)C(=O)Nc1ccc2oc(-c3ccnc(C(=O)N4CCC(C(c5ccccc5)n5nnc(C(F)F)n5)CC4)c3)nc2c1` (racemic) [Compound 164, (R/S)—N-(2-(2-(4-((5-(difluoromethyl)-2H-tetrazol-2-yl)(phenyl)methyl)piperidine-1-carbonyl)pyridin-4-yl)benzo[d]oxazol-5-yl)-2-fluoro-2-methylpropanamide] it is 13 nM. Same read-out and setting: with `Cn1cc(-c2ccc3oc(-c4ccnc(C(=O)N5CCN(C(c6ccccc6)c6nnn(C(F)F)n6)CC5)c4)cc3c2)cn1` (racemic) [Compound 165, (R/S)-(4-((2-(difluoromethyl)-2H-tetrazol-5-yl)(phenyl)methyl)piperazin-1-yl)(4-(5-(1-methyl-1H-pyrazol-4-yl)benzofuran-2-yl)pyridin-2-yl)methanone] the figure was 10 nM; with `Cn1cncc1-c1ccc2oc(-c3ccnc(C(=O)N4CCC(C(c5ccccc5)n5nnc(C(F)F)n5)CC4)c3)nc2c1` (racemic) [Compound 166, (R/S)-(4-((5-(difluoromethyl)-2H-tetrazol-2-yl)(phenyl)methyl)piperidin-1-yl)(4-(5-(1-methyl-1H-imidazol-5-yl)benzo[d]oxazol-2-yl)pyridin-2-yl)methanone], 6 nM.

For the molecule `Cc1nnn(C(c2ccccc2)C2CCN(C(=O)c3cc(-c4nc5cc(-c6cncn6C)ccc5o4)ccn3)CC2)n1` (racemic) [Compound 167, (R/S)-(4-(5-(1-methyl-1H-imidazol-5-yl)benzo[d]oxazol-2-yl)pyridin-2-yl)(4-((5-methyl-2H-tetrazol-2-yl)(phenyl)methyl)piperidin-1-yl)methanone], under setting [1], the EC50 worked out at 5 nM. With `O=C(c1cc(-c2nc3cc(-c4cn(C(F)F)cn4)ccc3o2)ccn1)N1CCN(C(c2ccccc2)c2nnn(C(F)F)n2)CC1` (racemic) [Compound 170, (R/S)-(4-(5-(1-(difluoromethyl)-1H-imidazol-4-yl)benzo[d]oxazol-2-yl)pyridin-2-yl)(4-((2-(difluoromethyl)-2H-tetrazol-5-yl)(phenyl)methyl)piperazin-1-yl)methanone], the EC50 under setting [1] came out at 7 nM. On to `O=C(c1cc(-c2nc3cc(-c4cncn4C(F)F)ccc3o2)ccn1)N1CCN(C(c2ccccc2)c2nnn(C(F)F)n2)CC1` (racemic) [Compound 171, (R/S)-(4-(5-(1-(difluoromethyl)-1H-imidazol-5-yl)benzo[d]oxazol-2-yl)pyridin-2-yl)(4-((2-(difluoromethyl)-2H-tetrazol-5-yl)(phenyl)methyl)piperazin-1-yl)methanone], for which the EC50 under setting [1] was 5 nM. Still for that read-out and setting: the figure for `O=C(c1cc(-c2nc3cc(-c4cnoc4)ccc3o2)ccn1)N1CCN(C(c2ccccc2)c2nnn(C(F)F)n2)CC1` (racemic) [Compound 174, (R/S)-(4-((2-(difluoromethyl)-2H-tetrazol-5-yl)(phenyl)methyl)piperazin-1-yl)(4-(5-(isoxazol-4-yl)benzo[d]oxazol-2-yl)pyridin-2-yl)methanone] is 15 nM; for `Cc1nnn(C(c2ccccc2)C2CCN(C(=O)c3cc(-c4nc5cc(-c6ccn(C)n6)ccc5o4)ccn3)CC2)n1` (racemic) [Compound 183, (R/S)-(4-(5-(1-methyl-1H-pyrazol-3-yl)benzo[d]oxazol-2-yl)pyridin-2-yl)(4-((5-methyl-2H-tetrazol-2-yl)(phenyl)methyl)piperidin-1-yl)methanone] it is 18 nM.
